For orientation: LD50 means the dose at which mortality reaches 50%. A higher LD50 goes with lower toxicity.

Results on one compound are retold here after patent US4785001A, “Ergoline esters” (Farmitalia Carlo Erba S.p.A., priority 1986, dated 1988).

Data set [1] in a line: orientative acute toxicity (LD50), p.o. mice. Particulars: mouse, in vivo, po.
Data set [2] is described as follows: electroencephalographic effects (EEG) in the rat. It counts as in vivo. Particulars: 20 mg/Kg p.o. How it is done:
Moreover, the compound prepared in Example 1 was tested at the dose of 20 mg/Kg p.o. in the rat and the electroencephalographic effects (EEG) were observed. […] See Buonamici, M., Young, G. A. and Khazon (1982), Neuropharmacology, 21 : 825-829.

In data set [1], `CO[C@]12C[C@@H](COC(=O)C3=CN(C)C=CC3)CN(C)[C@@H]1Cc1cn(C)c3cccc2c13` [Example 1, 10-Methoxy-,1,6-dimethyl-8β-(1-methyl-,1,4-dihydro-3-pyridyl-carbonyloxymethyl)-ergoline] gave an LD50 of more than 800 mg/kg. The “electroencephalographic effects (EEG)” value in data set [2] was “increased and long-lasting modifications”.
